Measurements published in ChEMBL document CHEMBL1201862, “PubChem BioAssay data set” (2004).
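Values below derive from 48-hour exposures of cells grown in 96-well plates, with endpoints linearly interpolated between the two concentrations bracketing the appropriate inhibition level. GI50 = concentration required for 50% inhibition of growth.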 The source made the active and inactive calls. Rule as the data show it: active = GI50 up to about 1.1 µM and inactive = higher.

Assays:
Test in all cases: NCI tumour cell line growth inhibition, 48 h
A498 = system: A498
CCRF-CEM = system: CCRF-CEM
DU-145 = system: DU-145
K562 = system: K562
KM12 = system: KM12
M14 = system: M14
MDA-MB-231 = system: MDA-MB-231
MDA-MB-435 = system: MDA-MB-435
MDA-N = system: MDA-N
NCI-H522 = system: NCI-H522
OVCAR-3 = system: OVCAR-3
SF-268 = system: SF-268
SF-295 = system: SF-295
SK-MEL-2 = system: SK-MEL-2
SNB-19 = system: SNB-19
SNB-75 = system: SNB-75
TK-10 = system: TK-10
U-251 = system: U-251
UO-31 = system: UO-31
SR = system: SR

SMILES	GI50 (A498)	GI50 (CCRF-CEM)	GI50 (DU-145)	GI50 (K562)	GI50 (KM12)	GI50 (M14)	GI50 (MDA-MB-231)	GI50 (MDA-MB-435)	GI50 (MDA-N)	GI50 (NCI-H522)	GI50 (OVCAR-3)	GI50 (SF-268)	GI50 (SF-295)	GI50 (SK-MEL-2)	GI50 (SNB-19)	GI50 (SNB-75)	GI50 (TK-10)	GI50 (U-251)	GI50 (UO-31)	GI50 (SR)
CC12CC(c3ccccc3O1)C(C(=O)Nc1nccs1)C(=O)N2 (stereo unspecified)	> 100 µM (inactive)	> 100 µM (inactive)	> 100 µM (inactive)	> 100 µM (inactive)	> 100 µM (inactive)	> 100 µM (inactive)	> 100 µM (inactive)	> 100 µM (inactive)	> 100 µM (inactive)	> 100 µM (inactive)	> 100 µM (inactive)	> 100 µM (inactive)	> 100 µM (inactive)	> 100 µM (inactive)	> 100 µM (inactive)	> 100 µM (inactive)	> 100 µM (inactive)	> 100 µM (inactive)	> 100 µM (inactive)	
COc1cc(/C=N/n2c(-c3ccccc3)n[nH]c2=O)cc(OC)c1OC	3.15 µM (inactive)	1.76 µM (inactive)	5.77 µM (inactive)	0.598 µM (active)	0.425 µM (active)	6.08 µM (inactive)	19.2 µM (inactive)	0.218 µM (active)	0.174 µM (active)	0.675 µM (active)	4.63 µM (inactive)	3.51 µM (inactive)	0.745 µM (active)	3.87 µM (inactive)	6.37 µM (inactive)	2.48 µM (inactive)	4.17 µM (inactive)	3.93 µM (inactive)	5.71 µM (inactive)	
CCCCC1Cc2cc(O)ccc2-c2nc3cc(O)ccc3n21.CCCCC1Cc2cc(O)ccc2-c2nc3ccc(O)cc3n21 (stereo unspecified)		19.2 µM (inactive)	28.5 µM (inactive)	10.7 µM (inactive)	19.4 µM (inactive)	15.3 µM (inactive)	13.6 µM (inactive)	11.9 µM (inactive)	14.3 µM (inactive)	11.1 µM (inactive)	21.7 µM (inactive)	12 µM (inactive)	15.2 µM (inactive)		11 µM (inactive)		18.6 µM (inactive)	14.4 µM (inactive)	13.1 µM (inactive)	12.6 µM (inactive)
CC(=S)N/C=C1/C(=O)C=C(C)OC1=O	> 100 µM (inactive)	> 100 µM (inactive)	> 100 µM (inactive)	> 100 µM (inactive)	> 100 µM (inactive)	> 100 µM (inactive)	> 100 µM (inactive)	> 100 µM (inactive)	> 100 µM (inactive)	> 100 µM (inactive)	> 100 µM (inactive)	> 100 µM (inactive)	> 100 µM (inactive)	> 100 µM (inactive)	> 100 µM (inactive)	54.3 µM (inactive)	> 100 µM (inactive)	> 100 µM (inactive)	> 100 µM (inactive)	
C=C(C)C1Cc2c(cc3c(c2O)c(=O)c2ccccc2n3C)O1 (stereo unspecified)	10.1 µM (inactive)	0.724 µM (active)	> 10 µM (inactive)	1.79 µM (inactive)	1.95 µM (inactive)	3 µM (inactive)	2.2 µM (inactive)	5.78 µM (inactive)	3.2 µM (inactive)		12.6 µM (inactive)	2.48 µM (inactive)	5.78 µM (inactive)	5.42 µM (inactive)	2.61 µM (inactive)	4.5 µM (inactive)	13.9 µM (inactive)	3.33 µM (inactive)	1.84 µM (inactive)	1.16 µM (inactive)
CC1(c2nc3ccccc3[nH]2)CCC(C(N)=O)C(C)(C)O1 (stereo unspecified)		> 100 µM (inactive)	> 100 µM (inactive)	> 100 µM (inactive)	> 100 µM (inactive)	> 100 µM (inactive)	> 100 µM (inactive)	> 100 µM (inactive)	> 100 µM (inactive)	> 100 µM (inactive)	> 100 µM (inactive)	> 100 µM (inactive)	> 100 µM (inactive)	> 100 µM (inactive)	> 100 µM (inactive)	> 100 µM (inactive)	> 100 µM (inactive)	> 100 µM (inactive)	> 100 µM (inactive)	> 100 µM (inactive)
CCCCC/C=C\C=C1\C(=O)C=C[C@@H]1C/C=C\CCCC(=O)O	11.7 µM (inactive)	0.205 µM (active)	6.92 µM (inactive)	1.62 µM (inactive)	2.67 µM (inactive)	6.85 µM (inactive)	9.2 µM (inactive)	2.42 µM (inactive)	1.96 µM (inactive)		2.9 µM (inactive)	4.37 µM (inactive)	3.87 µM (inactive)	3.05 µM (inactive)	4.51 µM (inactive)	9.66 µM (inactive)	8.43 µM (inactive)	2.48 µM (inactive)	6.31 µM (inactive)	1.96 µM (inactive)
